Source: patent US20100331297A1, “MODULATION OF PROTEIN TRAFFICKING” (FOLDRX PHARMACEUTICALS, INC., priority 2007, published 2010)

Columns and labels:
ΔF508 CFTR [1] = biological target: T1, ΔF508 CFTR (Homo sapiens, UniProt P13569, DEL508-508); test: Corrector activity, YFP halide (iodide) quenching assay in FRT cells expressing ΔF508 CFTR; assay type: cell-based; parameters: expressed in transfected cells; host or cells: Fischer rat thyroid (FRT) cells; details: FRT cells ΔF508 CFTR/YFP, 24 hours with compound at 37° C., forskolin and genistein; read-out: Corrector EC50
Outline: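 FRT cells co-expressing ΔF508 CFTR and halide-sensitive YFP were incubated 24 h at 37° C with compounds, then stimulated 30 min at 37° C in PBS with forskolin and genistein. Endpoint fluorescence after iodide injection was normalized to initial reading; EC50 from 4-parameter fit with bottom constrained to DMSO control.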

ΔF508 CFTR [2] = biological target: T1, ΔF508 CFTR; test: Potentiator activity, YFP halide (iodide) quenching assay in FRT cells expressing ΔF508 CFTR, 27° C. pre-incubation; assay type: cell-based; parameters: expressed in transfected cells; host or cells: Fischer rat thyroid (FRT) cells; details: FRT cells ΔF508 CFTR/YFP, 24 hours at 27° C., compound with forskolin 30 min
Experimental: Fisher rat thyroid (FRT) cells stably expressing ΔF508 CFTR and a halide-sensitive variant of yellow fluorescent protein (YFP) were seeded into microtiter plates and allowed to grow for 24 hours at 37° C. and 5% CO2, as described above. The medium was replaced with fresh medium and the cells were incubated for a further 24 hours at 27° C. and 5% CO2 to increase the level of mutant CFTR at the cell surface.
Compounds in DMSO solution were pre-diluted into phosphate-buffered saline solution (PBS) containing forskolin. Activity of CFTR was assayed by removing the medium, washing the cell monolayer with PBS, and then applying the compounds diluted in PBS containing forskolin. After 30 min of incubation at 37° C., the plates were placed in a fluorescence plate reader equipped with a reagent injector. After measuring an initial fluorescence value, iodide-containing buffer was injected and the decrease in fluorescence was followed at excitation and emission wavelengths of 485 and 530 nm, respectively.
Potentiator activity was calculated as follows. Normalized endpoint fluorescence was calculated by dividing the endpoint fluorescence after iodide injection by the initial fluorescence reading and multiplication by 100. Potentiator EC50 values were calculated by the same method as corrector EC50 values.

T1 sequence (P13569 with tags, fused parts or gaps DEL508-508): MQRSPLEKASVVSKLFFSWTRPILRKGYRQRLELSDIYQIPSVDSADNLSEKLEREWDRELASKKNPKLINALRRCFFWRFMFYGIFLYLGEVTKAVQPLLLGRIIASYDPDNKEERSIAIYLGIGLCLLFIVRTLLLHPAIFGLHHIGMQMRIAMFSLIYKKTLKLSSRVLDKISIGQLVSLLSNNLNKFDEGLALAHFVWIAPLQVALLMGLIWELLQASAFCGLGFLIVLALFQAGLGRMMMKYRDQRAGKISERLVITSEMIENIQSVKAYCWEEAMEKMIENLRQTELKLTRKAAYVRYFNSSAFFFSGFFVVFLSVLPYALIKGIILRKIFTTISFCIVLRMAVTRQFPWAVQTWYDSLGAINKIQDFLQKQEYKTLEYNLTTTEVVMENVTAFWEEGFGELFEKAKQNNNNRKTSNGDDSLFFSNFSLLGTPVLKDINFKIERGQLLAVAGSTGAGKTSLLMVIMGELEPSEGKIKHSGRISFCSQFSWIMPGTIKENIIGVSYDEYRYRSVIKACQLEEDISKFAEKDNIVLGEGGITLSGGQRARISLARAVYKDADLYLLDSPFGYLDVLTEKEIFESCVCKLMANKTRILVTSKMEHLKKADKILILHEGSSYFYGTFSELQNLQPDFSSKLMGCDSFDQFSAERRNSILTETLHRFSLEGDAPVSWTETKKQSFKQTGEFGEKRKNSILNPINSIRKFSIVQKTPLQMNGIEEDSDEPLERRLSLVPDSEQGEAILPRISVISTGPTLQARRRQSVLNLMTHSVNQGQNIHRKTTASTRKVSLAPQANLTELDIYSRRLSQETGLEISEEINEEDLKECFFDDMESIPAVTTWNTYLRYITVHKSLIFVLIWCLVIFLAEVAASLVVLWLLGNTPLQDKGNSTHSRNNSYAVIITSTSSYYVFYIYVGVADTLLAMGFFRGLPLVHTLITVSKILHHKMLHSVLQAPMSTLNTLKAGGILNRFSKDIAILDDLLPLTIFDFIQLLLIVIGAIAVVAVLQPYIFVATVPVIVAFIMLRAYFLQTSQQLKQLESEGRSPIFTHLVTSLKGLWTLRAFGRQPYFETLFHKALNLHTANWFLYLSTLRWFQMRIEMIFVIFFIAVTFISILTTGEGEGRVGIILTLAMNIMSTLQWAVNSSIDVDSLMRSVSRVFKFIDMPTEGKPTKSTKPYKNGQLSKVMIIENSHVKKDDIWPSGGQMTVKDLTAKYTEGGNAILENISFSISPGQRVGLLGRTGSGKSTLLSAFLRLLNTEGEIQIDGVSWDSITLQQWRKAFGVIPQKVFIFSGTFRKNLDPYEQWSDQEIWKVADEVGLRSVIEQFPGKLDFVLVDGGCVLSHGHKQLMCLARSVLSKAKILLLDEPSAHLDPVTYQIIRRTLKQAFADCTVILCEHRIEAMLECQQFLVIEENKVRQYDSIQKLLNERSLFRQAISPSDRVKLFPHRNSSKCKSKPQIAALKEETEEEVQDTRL

Structure (SMILES) | EC50 (ΔF508 CFTR [1]) [µM] | EC50 (ΔF508 CFTR [2]) [µM]
Cc1ccc(C(=O)Nc2ncnc3c2c(-c2ccc(C)cc2)nn3C(C)(C)C)cc1 [compound 95] | > 15 | 2 to 5
Cc1ccc(-c2nn(C(C)(C)C)c3ncnc(NC(=O)c4ccccc4Cl)c23)cc1 [compound 99] | > 15 | 2 to 5
Cc1cccc(-c2nn(C(C)(C)C)c3ncnc(N)c23)c1 [compound 104] | > 15 | 2 to 5
CC(=O)Nc1ncnc2c1c(-c1ccc(F)cc1)nn2C(C)(C)C [compound 118, N-[1-tert-Butyl-3-(4-fluoro-phenyl)-1H-pyrazolo[3,4-d]pyrimidin-4-yl]-acetamide] | > 15 | > 15
CC(C)(C)n1nc(-c2ccc3c(c2)OCO3)c2c(N)ncnc21 [compound 131] | > 15 | 2 to 5
CC(C)(C)n1nc(-c2cccc(Oc3ccccc3)c2)c2c(N)ncnc21 [compound 132] | > 15 | > 15
CCn1nc(-c2ccc(N=[N+]=[N-])cc2)c2c(N)ncnc21 [compound 170] | 5 to 10 | > 15
CC(C)(C)n1nc(Sc2ccccc2)c2c(N)ncnc21 [compound 172] | > 15 | < 2
CC(C)(C)n1nc([S+]([O-])c2ccccc2)c2c(N)ncnc21 (centres unmarked) [compound 173, 3-benzenesulfinyl-1-tert-butyl-1H-pyrazolo[3,4-d]pyrimidin-4-ylamine] | > 15 | > 15
Cc1cc(C)cc(Oc2nn(C(C)(C)C)c3ncnc(N)c23)c1 [compound 180] | 5 to 10 | < 2
Cc1ccccc1Oc1nn(C(C)(C)C)c2ncnc(N)c12 [compound 185] | > 15 | < 2
Nc1ncnc2c1c(-c1ccc(Cl)cc1)nn2C(=O)Oc1ccccc1 [compound 187] | 5 to 10 | > 15
Nc1ncnc2c1c(-c1ccc(Cl)cc1)nn2C(=O)OCc1ccccc1 [compound 188] | 5 to 10 | > 15
CC(C)(C)n1nc(Oc2cccc(-c3ccccc3)c2)c2c(N)ncnc21 [compound 190] | 5 to 10 | > 15
CC(C)(C)n1nc(S(=O)(=O)c2ccccc2)c2c(N)ncnc21 [compound 191, 3-Benzenesulfonyl-1-tert-butyl-1H-pyrazolo[3,4-d]pyrimidin-4-ylamine] | > 15 | 5 to 10
CC(C)(C)n1nc(Oc2cccc3cccnc23)c2c(N)ncnc21 [compound 195] | 5 to 10 | > 15

More lines, now with the values ahead:

EC50 (ΔF508 CFTR [1]) [µM] | EC50 (ΔF508 CFTR [2]) [µM] | Structure (SMILES)
> 15 | < 2 | Cc1cccc(Oc2nn(C(C)(C)C)c3ncnc(N)c23)c1C [compound 167]
> 15 | < 2 | CC(C)(C)n1nc(Oc2ccc(Cl)cc2)c2c(N)ncnc21 [compound 168]
> 15 | < 2 | CC(C)(C)n1nc(Oc2ccc(F)c(F)c2)c2c(N)ncnc21 [compound 174]
> 15 | < 2 | CC(C)(C)n1nc(Oc2ccc(F)c(Cl)c2)c2c(N)ncnc21 [compound 176]
> 15 | < 2 | Cc1ccc(Oc2nn(C(C)(C)C)c3ncnc(N)c23)cc1C [compound 177]
> 15 | 2 to 5 | CC(C)(C)n1nc(Oc2cccc(F)c2F)c2c(N)ncnc21 [compound 178]
> 15 | < 2 | Cc1cc(Oc2nn(C(C)(C)C)c3ncnc(N)c23)ccc1F [compound 179]
> 15 | > 15 | CC(C)(C)n1nc(Oc2cccnc2)c2c(N)ncnc21 [compound 183]
> 15 | < 2 | CC(C)(C)n1nc(Oc2cccc(Oc3ccccc3)c2)c2c(N)ncnc21 [compound 189]
> 15 | > 15 | CC(C)(C)n1nc(Oc2cccc(OC(F)(F)F)c2)c2c(N)ncnc21 [compound 194]
5 to 10 | < 2 | CC(C)(C)n1nc(Oc2ccc(F)cc2)c2c(N)ncnc21 [compound 196]
5 to 10 | < 2 | CC(C)(C)n1nc(Oc2ccccc2F)c2c(N)ncnc21 [compound 197]
